Reference: paper doi:10.1101/695973v1 (biorxiv, 2019)
Like-named read-outs stand apart in the source and are kept apart here.

Legend:
[1] = test system: β-lactamase Mm3; conditions: 20 mM sodium phosphate, 0.2 M NaCl, pH 7.4, 30°C; Hill equation, nH 2.36
[2] = test system: β-lactamase Mm3; experiment: spectrophotometric hydrolysis at […] nm, initial rates, Michaelis-Menten fit; type: biochemical, uncultured bacterium; conditions: 20 mM sodium phosphate, 0.2 M NaCl, pH 7.4, 30°C

Km [1] [µM]	Km [2] [µM]	SMILES
271 ± 16.4		CC1(C)S[C@@H]2[C@H](NC(=O)[C@H](N)c3ccccc3)C(=O)N2[C@H]1C(=O)O [ampicillin]
	400 ± 42.7	CC1(C)S[C@@H]2[C@H](NC(=O)C(C(=O)O)c3ccccc3)C(=O)N2[C@H]1C(=O)O (some centres unmarked) [carbenicillin]
